{"source": "the supplement of paper PMC10307832", "data": [{"compound": "COc1cccc2c1C(=O)c1c(O)c3c(c(O)c1C2=O)C[C@@](O)(C(=O)CO)C[C@@H]3O[C@H]1C[C@H](N)[C@H](O)[C@H](C)O1 [Doxorubicin] + CS(=O)(=O)CCNCc1ccc(-c2ccc3ncnc(Nc4ccc(OCc5cccc(F)c5)c(Cl)c4)c3c2)o1 [Lapatinib] (partner 2 µM)", "experiment": "relative viability (nuclei count vs DMSO), 5 days (fraction); higher = more cells survive", "conditions": "first compound 0.001 µM", "in_short": "(§1)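 A single step with final 0.05% Triton X-100, 1% formaldehyde and 1 ug/ml Hoechst fixed the cells and stained nuclei 5 days after treatment. Lung cancer cell lines in 1536-well plates had been treated by pin tool the day after seeding with one drug alone or a fixed anchor-drug dose plus five library-drug doses (not always all listed) in √10 steps, and nuclei were counted on 4× images. Relative viability is the ratio of nuclei in treated wells to nuclei in vehicle wells, taken as the median of duplicate plates.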", "values": [{"cell line": "NCI-H2228", "relative viability": 0.971}, {"cell line": "EMC-BAC-2", "relative viability": 0.943}, {"cell line": "NCI-H2087", "relative viability": 0.749}, {"cell line": "Calu-6", "relative viability": 0.959}, {"cell line": "HCC-44", "relative viability": 0.988}, {"cell line": "NCI-H1703", "relative viability": 0.821}, {"cell line": "NCI-H727", "relative viability": 0.76}, {"cell line": "LK-2", "relative viability": 0.879}, {"cell line": "NCI-H2126", "relative viability": 0.766}, {"cell line": "H3255", "relative viability": 0.261}, {"cell line": "COR-L23", "relative viability": 0.955}, {"cell line": "COR-L 105", "relative viability": 0.372}, {"cell line": "LC-2-ad", "relative viability": 0.838}, {"cell line": "LU99A", "relative viability": 1.01}, {"cell line": "NCI-H358", "relative viability": 0.503}, {"cell line": "NCI-H322M", "relative viability": 0.636}, {"cell line": "IA-LM", "relative viability": 0.845}, {"cell line": "HCC-78", "relative viability": 0.752}, {"cell line": "A549", "relative viability": 0.922}, {"cell line": "LXF-289", "relative viability": 0.865}, {"cell line": "BEN", "relative viability": 1.01}, {"cell line": "HARA", "relative viability": 0.599}, {"cell line": "HCC-827", "relative viability": 0.322}, {"cell line": "NCI-H520", "relative viability": 0.881}, {"cell line": "NCI-H2023", "relative viability": 0.226}, {"cell line": "A-427", "relative viability": 1.1}, {"cell line": "NCI-H647", "relative viability": 1.02}, {"cell line": "PC-3 [JPC-3]", "relative viability": 0.455}, {"cell line": "NCI-H1755", "relative viability": 0.962}]}, {"compound": "COc1cccc2c1C(=O)c1c(O)c3c(c(O)c1C2=O)C[C@@](O)(C(=O)CO)C[C@@H]3O[C@H]1C[C@H](N)[C@H](O)[C@H](C)O1 [Doxorubicin] + CS(=O)(=O)CCNCc1ccc(-c2ccc3ncnc(Nc4ccc(OCc5cccc(F)c5)c(Cl)c4)c3c2)o1 [Lapatinib] (partner 2 µM)", "experiment": "relative viability (nuclei count vs DMSO), 5 days (fraction); higher = more cells survive", "conditions": "first compound 0.003162 µM", "in_short": "as §1", "values": [{"cell line": "NCI-H2228", "relative viability": 0.962}, {"cell line": "EMC-BAC-2", "relative viability": 0.956}, {"cell line": "NCI-H2087", "relative viability": 1.01}, {"cell line": "Calu-6", "relative viability": 1.05}, {"cell line": "HCC-44", "relative viability": 1.02}, {"cell line": "NCI-H1703", "relative viability": 1.14}, {"cell line": "NCI-H727", "relative viability": 0.784}, {"cell line": "LK-2", "relative viability": 0.74}, {"cell line": "NCI-H2126", "relative viability": 0.796}, {"cell line": "NCI-H1793", "relative viability": 0.93}, {"cell line": "H3255", "relative viability": 0.262}, {"cell line": "COR-L23", "relative viability": 1.19}, {"cell line": "COR-L 105", "relative viability": 0.358}, {"cell line": "LC-2-ad", "relative viability": 0.958}, {"cell line": "LU99A", "relative viability": 1.16}, {"cell line": "NCI-H358", "relative viability": 0.441}, {"cell line": "NCI-H322M", "relative viability": 0.563}, {"cell line": "IA-LM", "relative viability": 0.957}, {"cell line": "HCC-78", "relative viability": 0.723}, {"cell line": "A549", "relative viability": 0.954}, {"cell line": "LXF-289", "relative viability": 0.886}, {"cell line": "BEN", "relative viability": 0.608}, {"cell line": "HARA", "relative viability": 0.591}, {"cell line": "HCC-827", "relative viability": 0.322}, {"cell line": "NCI-H520", "relative viability": 0.965}, {"cell line": "LOU-NH91", "relative viability": 0.736}, {"cell line": "NCI-H2023", "relative viability": 0.734}, {"cell line": "A-427", "relative viability": 0.985}, {"cell line": "NCI-H647", "relative viability": 1.24}, {"cell line": "PC-3 [JPC-3]", "relative viability": 0.444}, {"cell line": "NCI-H1755", "relative viability": 1.05}]}, {"compound": "COc1cccc2c1C(=O)c1c(O)c3c(c(O)c1C2=O)C[C@@](O)(C(=O)CO)C[C@@H]3O[C@H]1C[C@H](N)[C@H](O)[C@H](C)O1 [Doxorubicin] + CS(=O)(=O)CCNCc1ccc(-c2ccc3ncnc(Nc4ccc(OCc5cccc(F)c5)c(Cl)c4)c3c2)o1 [Lapatinib] (partner 2 µM)", "experiment": "relative viability (nuclei count vs DMSO), 5 days (fraction); higher = more cells survive", "conditions": "first compound 0.01 µM", "in_short": "as §1", "values": [{"cell line": "NCI-H2228", "relative viability": 0.65}, {"cell line": "EMC-BAC-2", "relative viability": 0.801}, {"cell line": "NCI-H2087", "relative viability": 0.815}, {"cell line": "Calu-6", "relative viability": 0.678}, {"cell line": "HCC-44", "relative viability": 0.954}, {"cell line": "NCI-H1703", "relative viability": 0.448}, {"cell line": "NCI-H727", "relative viability": 0.792}, {"cell line": "LK-2", "relative viability": 0.804}, {"cell line": "NCI-H2126", "relative viability": 0.76}, {"cell line": "NCI-H1793", "relative viability": 0.643}, {"cell line": "H3255", "relative viability": 0.247}, {"cell line": "COR-L23", "relative viability": 0.921}, {"cell line": "COR-L 105", "relative viability": 0.321}, {"cell line": "LC-2-ad", "relative viability": 0.935}, {"cell line": "LU99A", "relative viability": 0.954}, {"cell line": "NCI-H358", "relative viability": 0.334}, {"cell line": "NCI-H322M", "relative viability": 0.547}, {"cell line": "IA-LM", "relative viability": 0.638}, {"cell line": "HCC-78", "relative viability": 0.77}, {"cell line": "A549", "relative viability": 0.415}, {"cell line": "LXF-289", "relative viability": 0.864}, {"cell line": "BEN", "relative viability": 0.697}, {"cell line": "HARA", "relative viability": 0.893}, {"cell line": "HCC-827", "relative viability": 0.182}, {"cell line": "NCI-H520", "relative viability": 0.753}, {"cell line": "LOU-NH91", "relative viability": 0.765}, {"cell line": "NCI-H2023", "relative viability": 0.252}, {"cell line": "A-427", "relative viability": 1.06}, {"cell line": "NCI-H647", "relative viability": 0.643}, {"cell line": "PC-3 [JPC-3]", "relative viability": 0.46}, {"cell line": "NCI-H1755", "relative viability": 0.991}]}, {"compound": "COc1cccc2c1C(=O)c1c(O)c3c(c(O)c1C2=O)C[C@@](O)(C(=O)CO)C[C@@H]3O[C@H]1C[C@H](N)[C@H](O)[C@H](C)O1 [Doxorubicin] + CS(=O)(=O)CCNCc1ccc(-c2ccc3ncnc(Nc4ccc(OCc5cccc(F)c5)c(Cl)c4)c3c2)o1 [Lapatinib] (partner 2 µM)", "experiment": "relative viability (nuclei count vs DMSO), 5 days (fraction); higher = more cells survive", "conditions": "first compound 0.03162 µM", "in_short": "as §1", "values": [{"cell line": "NCI-H2228", "relative viability": 0.187}, {"cell line": "EMC-BAC-2", "relative viability": 0.415}, {"cell line": "NCI-H2087", "relative viability": 0.759}, {"cell line": "Calu-6", "relative viability": 0.261}, {"cell line": "HCC-44", "relative viability": 0.979}, {"cell line": "NCI-H1703", "relative viability": 0.241}, {"cell line": "NCI-H727", "relative viability": 0.666}, {"cell line": "LK-2", "relative viability": 0.724}, {"cell line": "NCI-H2126", "relative viability": 0.728}, {"cell line": "NCI-H1793", "relative viability": 0.537}, {"cell line": "H3255", "relative viability": 0.259}, {"cell line": "COR-L23", "relative viability": 0.241}, {"cell line": "COR-L 105", "relative viability": 0.287}, {"cell line": "LC-2-ad", "relative viability": 0.697}, {"cell line": "LU99A", "relative viability": 0.583}, {"cell line": "NCI-H358", "relative viability": 0.195}, {"cell line": "NCI-H322M", "relative viability": 0.521}, {"cell line": "IA-LM", "relative viability": 0.18}, {"cell line": "HCC-78", "relative viability": 0.673}, {"cell line": "A549", "relative viability": 0.0939}, {"cell line": "LXF-289", "relative viability": 0.891}, {"cell line": "BEN", "relative viability": 0.474}, {"cell line": "HARA", "relative viability": 0.62}, {"cell line": "HCC-827", "relative viability": 0.201}, {"cell line": "NCI-H520", "relative viability": 0.48}, {"cell line": "LOU-NH91", "relative viability": 0.579}, {"cell line": "NCI-H2023", "relative viability": 0.134}, {"cell line": "A-427", "relative viability": 1.04}, {"cell line": "NCI-H647", "relative viability": 0.119}, {"cell line": "PC-3 [JPC-3]", "relative viability": 0.451}, {"cell line": "NCI-H1755", "relative viability": 1.07}]}, {"compound": "COc1cccc2c1C(=O)c1c(O)c3c(c(O)c1C2=O)C[C@@](O)(C(=O)CO)C[C@@H]3O[C@H]1C[C@H](N)[C@H](O)[C@H](C)O1 [Doxorubicin] + CS(=O)(=O)CCNCc1ccc(-c2ccc3ncnc(Nc4ccc(OCc5cccc(F)c5)c(Cl)c4)c3c2)o1 [Lapatinib] (partner 2 µM)", "experiment": "relative viability (nuclei count vs DMSO), 5 days (fraction); higher = more cells survive", "conditions": "first compound 0.1 µM", "in_short": "as §1", "values": [{"cell line": "NCI-H2228", "relative viability": 0.119}, {"cell line": "EMC-BAC-2", "relative viability": 0.269}, {"cell line": "NCI-H2087", "relative viability": 0.529}, {"cell line": "Calu-6", "relative viability": 0.221}, {"cell line": "HCC-44", "relative viability": 0.815}, {"cell line": "NCI-H1703", "relative viability": 0.21}, {"cell line": "NCI-H727", "relative viability": 0.681}, {"cell line": "LK-2", "relative viability": 0.81}, {"cell line": "NCI-H2126", "relative viability": 0.773}, {"cell line": "NCI-H1793", "relative viability": 0.659}, {"cell line": "H3255", "relative viability": 0.228}, {"cell line": "COR-L23", "relative viability": 0.14}, {"cell line": "COR-L 105", "relative viability": 0.283}, {"cell line": "LC-2-ad", "relative viability": 0.255}, {"cell line": "LU99A", "relative viability": 0.788}, {"cell line": "NCI-H358", "relative viability": 0.207}, {"cell line": "NCI-H322M", "relative viability": 0.569}, {"cell line": "IA-LM", "relative viability": 0.112}, {"cell line": "HCC-78", "relative viability": 0.466}, {"cell line": "A549", "relative viability": 0.0714}, {"cell line": "LXF-289", "relative viability": 0.823}, {"cell line": "BEN", "relative viability": 0.644}, {"cell line": "HARA", "relative viability": 0.659}, {"cell line": "HCC-827", "relative viability": 0.22}, {"cell line": "NCI-H520", "relative viability": 0.248}, {"cell line": "LOU-NH91", "relative viability": 0.599}, {"cell line": "NCI-H2023", "relative viability": 0.11}, {"cell line": "A-427", "relative viability": 1.02}, {"cell line": "NCI-H647", "relative viability": 0.0876}, {"cell line": "PC-3 [JPC-3]", "relative viability": 0.448}, {"cell line": "NCI-H1755", "relative viability": 0.998}]}, {"compound": "COC1=C(C=C(C=C1)C2=CC3=NC=CN3C(=N2)NC4=C(C=CC=N4)C(=O)N)OC [BAY61-3606] + CS(=O)(=O)N1CCN(Cc2cc3nc(-c4cccc5[nH]ncc45)nc(N4CCOCC4)c3s2)CC1 [Pictilisib] (partner 1 µM)", "experiment": "relative viability (nuclei count vs DMSO), 5 days (fraction); higher = more cells survive", "conditions": "first compound 0.02 µM", "in_short": "as §1", "values": [{"cell line": "NCI-H2228", "relative viability": 0.432}]}]}
